Here are results for eight compounds from patent US6518243B1, “Desleucyl glycopeptide antibiotics and methods of making same” (Trustees of Princeton University, priority 1999, dated 2003).

Format in all cases: cell-based
Assay [1] concerns S aureus ATCC 29213. As to the kind of experiment: MIC determination in BHI media, OD600. As to conditions: BHI + 0.1% casamino acids, 18 hours at 37° C., ≧90% OD600 inhibition. The essentials: (§1)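 Log-phase bacteria were diluted to about 5×10^5 CFU/ml and exposed to test compounds serially diluted in DMSO. Following 18 hours at 37° C, growth was read by plate absorbance to assign the MIC.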

Assay [2] has as its system E. faecium ATCC 49624. As to the kind of experiment: MIC determination in BHI media, OD600. As to conditions: BHI + 0.1% casamino acids, 18 hours at 37° C., ≧90% OD600 inhibition. The essentials: as §1
For assay [3], the system named is E. faecalis ATCC 29212. As to the kind of experiment: MIC determination in BHI media, OD600. As to conditions: BHI + 0.1% casamino acids, 18 hours at 37° C., ≧90% OD600 inhibition. The essentials: as §1
For assay [4], the system named is S. Aureus ATCC 33591. As to the kind of experiment: MIC determination in BHI media, OD600. To be noted: BHI + 0.1% casamino acids, 18 hours at 37° C., ≧90% OD600 inhibition. The essentials: as §1
Assay [5] relates to S. aureus (ATCC 29213). Nature of the assay: Zone of inhibition screen, 96 well agar array format. Also noted: scale not given here. As to conditions: zone of inhibition relative to 1 mg/ml stock solution of p-chlorobiphenylvancomycin. A digest of the protocol:
(§2)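 Each compound was tested for antibacterial activity against a shared bacterial panel, with screening carried out on agar in a 96-well array.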

The test system of assay [6] is E. faecalis (CL 4877). The description is as above. Also noted: scale not given here. To be noted: zone of inhibition relative to 1 mg/ml stock solution of p-chlorobiphenylvancomycin. A digest of the protocol:
as §2

On to `C[C@H]1O[C@H](O[C@H]2[C@H](Oc3c4cc5cc3Oc3ccc(cc3Cl)[C@@H](O)[C@@H](NC(=O)[C@@H](N)Cc3ccccc3)C(=O)N[C@@H](CC(N)=O)C(=O)N[C@H]5C(=O)N[C@H]3C(=O)N[C@H](C(=O)N[C@@H](C(=O)O)c5cc(O)cc(O)c5-c5cc3ccc5O)[C@H](O)c3ccc(c(Cl)c3)O4)O[C@H](CO)[C@@H](O)[C@@H]2O)C[C@@](C)(NCc2ccc(-c3ccc(Cl)cc3)cc2)[C@H]1O` [Compound 7], for which the MIC S. aureus ATCC 29213 in assay [1] amounted to 0.39 µg/mL. Moreover, the MIC E. faecium ATCC 49624 in assay [2] stood at 0.12 µg/mL. Further, in assay [3], the MIC E. faecalis ATCC 29212 was determined as 0.78 µg/mL. Further, in assay [4], the MIC S. aureus ATCC 33591 came out at 0.39 µg/mL. Further, in assay [5], the “zone score, S. aureus ATCC 29213” value turned out to be 2. Besides, the “zone score, E. faecalis CL 4877” value in assay [6] is reported as 2.

For the compound `CCC(C)C(N)C(=O)NC1C(=O)NC(CC(N)=O)C(=O)NC2C(=O)NC3C(=O)NC(C(=O)NC(C(=O)O)c4cc(O)cc(O)c4-c4cc3ccc4O)C(O)c3ccc(c(Cl)c3)Oc3cc2cc(c3OC2OC(CO)C(O)C(O)C2OC2CC(C)(NCc3ccc(-c4ccc(Cl)cc4)cc3)C(O)C(C)O2)Oc2ccc(cc2Cl)C1O` (stereo not drawn) [Compound 37], the MIC S. aureus ATCC 29213 in assay [1] was determined as 0.39 µg/mL. Also, the MIC E. faecium ATCC 49624 in assay [2] worked out at 0.25 µg/mL. Further, in assay [3], the MIC E. faecalis ATCC 29212 worked out at 0.78 µg/mL. Moreover, in assay [4], the MIC S. aureus ATCC 33591 was found to be 0.39 µg/mL.

With `CNC(CC(C)C)C(=O)NC1C(=O)NC(CC(N)=O)C(=O)NC2C(=O)NC3C(=O)NC(C(=O)NC(C(=O)O)c4cc(O)cc(O)c4-c4cc3ccc4O)C(O)c3ccc(c(Cl)c3)Oc3cc2cc(c3OC2OC(CI)C(O)C(O)C2OC2CC(C)(NCc3ccc(-c4ccc(Cl)cc4)cc3)C(O)C(C)O2)Oc2ccc(cc2Cl)C1O` (stereo not drawn) [Compound 520], in assay [1], the MIC S. aureus ATCC 29213 is 0.78 µg/mL. The MIC E. faecium ATCC 49624 in assay [2] amounted to 0.12 µg/mL. Also, the MIC E. faecalis ATCC 29212 in assay [3] was 0.78 µg/mL. The MIC S. aureus ATCC 33591 in assay [4] turned out to be 0.78 µg/mL.

As to `CC(C)C(N)C(=O)NC1C(=O)NC(CC(N)=O)C(=O)NC2C(=O)NC3C(=O)NC(C(=O)NC(C(=O)O)c4cc(O)cc(O)c4-c4cc3ccc4O)C(O)c3ccc(c(Cl)c3)Oc3cc2cc(c3OC2OC(CO)C(O)C(O)C2OC2CC(C)(NCc3ccc(-c4ccc(Cl)cc4)cc3)C(O)C(C)O2)Oc2ccc(cc2Cl)C1O` (stereo not drawn) [Compound 339], the MIC S. aureus ATCC 29213 in assay [1] turned out to be 0.25 µg/mL. Further, the MIC E. faecium ATCC 49624 in assay [2] was 0.12 µg/mL. In assay [3], the MIC E. faecalis ATCC 29212 amounted to 0.25 µg/mL. The MIC S. aureus ATCC 33591 in assay [4] worked out at 0.25 µg/mL.

In the case of `CC(C)CC(N)C(=O)NC1C(=O)NC(CC(N)=O)C(=O)NC2C(=O)NC3C(=O)NC(C(=O)NC(C(=O)O)c4cc(O)cc(O)c4-c4cc3ccc4O)C(O)c3ccc(c(Cl)c3)Oc3cc2cc(c3OC2OC(CO)C(O)C(O)C2OC2CC(C)(NCc3ccc(-c4ccc(Cl)cc4)cc3)C(O)C(C)O2)Oc2ccc(cc2Cl)C1O` (stereo not drawn) [Compound 336], in assay [1], the MIC S. aureus ATCC 29213 was found to be 0.25 µg/mL. Further, the MIC E. faecium ATCC 49624 in assay [2] is 0.12 µg/mL. Further, the MIC E. faecalis ATCC 29212 in assay [3] was 0.25 µg/mL. In addition, the MIC S. aureus ATCC 33591 in assay [4] was determined as 0.25 µg/mL.

Consider `CNC(CC(C)C)C(=O)NC1C(=O)NC(CC(N)=O)C(=O)NC2C(=O)NC3C(=O)NC(C(=O)NC(C(=O)O)c4cc(O)cc(O)c4-c4cc3ccc4O)C(O)c3ccc(c(Cl)c3)Oc3cc2cc(c3OC2OC(CO)C(O)C(O)C2OC2CC(C)(NCc3ccc(-c4ccc(Cl)cc4)cc3)C(O)C(C)O2)Oc2ccc(cc2Cl)C1O` (stereo not drawn) [Compound 329], for which the MIC S. aureus ATCC 29213 in assay [1] stood at 0.25 µg/mL. In addition, the MIC E. faecium ATCC 49624 in assay [2] stood at 0.031 µg/mL. Further, the MIC E. faecalis ATCC 29212 in assay [3] worked out at 0.12 µg/mL. For the same compound, in assay [4], the MIC S. aureus ATCC 33591 stood at 0.12 µg/mL.

On to `CCOC(=O)NC(CC(N)=O)C(=O)NC1C(=O)NC(CC(N)=O)C(=O)NC2C(=O)NC3C(=O)NC(C(=O)NC(C(=O)O)c4cc(O)cc(O)c4-c4cc3ccc4O)C(O)c3ccc(c(Cl)c3)Oc3cc2cc(c3OC2OC(CO)C(O)C(O)C2OC2CC(C)(NCc3ccc(-c4ccc(Cl)cc4)cc3)C(O)C(C)O2)Oc2ccc(cc2Cl)C1O` (stereo not drawn) [Compound 188], for which the MIC S. aureus ATCC 29213 in assay [1] was found to be 0.39 µg/mL. Further, the MIC E. faecium ATCC 49624 in assay [2] worked out at 0.062 µg/mL. For the same compound, the MIC E. faecalis ATCC 29212 in assay [3] worked out at 0.39 µg/mL. The MIC S. aureus ATCC 33591 in assay [4] was 0.39 µg/mL. Further, the “zone score, S. aureus ATCC 29213” value in assay [5] was determined as 2. In addition, the “zone score, E. faecalis CL 4877” value in assay [6] is on record as 2.

In the case of `CC1OC(OC2C(Oc3c4cc5cc3Oc3ccc(cc3Cl)C(O)C3NC(=O)C(NC(=O)C5NC(=O)C(CC(N)=O)NC(=O)C(NC(=O)C(N)COC(C)(C)C)C(O)c5ccc(c(Cl)c5)O4)c4ccc(O)c(c4)-c4c(O)cc(O)cc4C(C(=O)O)NC3=O)OC(CN)C(O)C2O)CC(C)(NCc2ccc(-c3ccc(Cl)cc3)cc2)C1O` (stereo not drawn) [Compound 521], in assay [1], the MIC S. aureus ATCC 29213 worked out at 0.78 µg/mL. For the same compound, the MIC E. faecium ATCC 49624 in assay [2] was found to be 0.12 µg/mL. The MIC E. faecalis ATCC 29212 in assay [3] was found to be 0.78 µg/mL. Moreover, the MIC S. aureus ATCC 33591 in assay [4] stood at 0.78 µg/mL.
